Test results: PubChem BioAssay AID1745844 (Carcinogenic Potency Database (CPDB), 2022)
Activity calls are given as the source filed them. The rule behind the calls is not given here.

Test system: rodent lifetime carcinogenesis bioassay, tumor incidence TD50
Experiment: carcinogenic potency in animals, long-term in vivo studies, CPDB compilation (AID 1745844)
Settings: in feed, dosed 104 weeks, study length 104 weeks

CC1=C(C(=O)OCCN(Cc2ccccc2)c2ccccc2)C(c2cccc([N+](=O)[O-])c2)C(P2(=O)OCC(C)(C)CO2)=C(C)N1 (stereo not given)
inactive: carcinogen call (mouse, strain B6C3F1, females, site: any site (literature study), lesion: several types, types named in the paper) negative | TD50 (mouse, strain B6C3F1, females, site: liver, lesion: hepatocellular adenoma) 11500 mg/kg/day | TD50 (mouse, strain B6C3F1, females, site: liver, lesion: hepatocellular carcinoma) 7430 mg/kg/day | carcinogen call (mouse, strain B6C3F1, females, site: lung, lesion: alveolar/bronchiolar adenoma) negative | TD50 (mouse, strain B6C3F1, females, site: lung, lesion: alveolar/bronchiolar carcinoma) 12300 mg/kg/day | TD50 (mouse, strain B6C3F1, females, site: lymph node, lesion: malignant lymphoma) 276 mg/kg/day | carcinogen call (mouse, strain B6C3F1, males, site: any site (literature study), lesion: several types, types named in the paper) negative | carcinogen call (mouse, strain B6C3F1, males, site: liver, lesion: hepatocellular adenoma) negative | carcinogen call (mouse, strain B6C3F1, males, site: liver, lesion: hepatocellular carcinoma) negative | carcinogen call (mouse, strain B6C3F1, males, site: lung, lesion: alveolar/bronchiolar adenoma) negative | carcinogen call (mouse, strain B6C3F1, males, site: lung, lesion: alveolar/bronchiolar carcinoma) negative | TD50 (rat, strain F344/DuCrj, females, site: any site (literature study), lesion: several types, types named in the paper) 244 mg/kg/day | carcinogen call (rat, strain F344/DuCrj, females, site: liver, lesion: hepatocellular adenoma) negative | carcinogen call (rat, strain F344/DuCrj, males, site: any site (literature study), lesion: several types, types named in the paper) negative | TD50 (rat, strain F344/DuCrj, males, site: liver, lesion: several types, types named in the paper) 2310 mg/kg/day
